Laboratory results taken from patent US20100130436A1, “CO-ADMINISTRATION OF RANOLAZINE AND CARDIAC GLYCOSIDES” (priority 2008, published 2010).

Experiments:
[1] = test system: late sodium current (late INa); test: Whole-cell patch-clamp of late INa in isolated ventricular myocytes; assay type: cell-based, guinea pig; conditions: for effect of ouabain (1 μmol/L) to increase late INa: FIG. 10, intracellular KN-93 10 μmol/L, EGTA 1 mmol/L, KN-92 10 μmol/L; for increase of late INa at the end of a 10-min exposure to ouabain / late INa at the end of a 10-min exposure to ouabain: ouabain 1 μmol/L
[2] = test system: [Na+]i of guinea pig isolated heart; test: 23Na-NMR spectroscopy of intracellular sodium concentration in isolated heart; conditions: for [Na+]i: absence of ranolazine, n=4
Na+, K+-ATPase = test: Na+,K+-ATPase activity assay by 86Rb+ uptake of A7r5 cells; assay type: cell-based; conditions: 1 mmol/L ouabain, absence of ranolazine
From the text: The activity of Na^+, K^+-ATPase was inhibited 77% by 1 mmol/L ouabain in the absence (control) of ranolazine. Values of ^86Rb^+ uptake were 91±11, 98±2.5, and 93±8.3% of control (activity in presence of ouabain) in the presence of 3, 10, and 30 μmol/L ranolazine, respectively.

[3] = test system: guinea pig isolated, perfused heart; test: 31P-NMR spectroscopy of energy-related phosphates and pHi in isolated heart
cat papillary muscles = conditions: 1.37 μmol/L ouabain, Lee et al. 1960; cited from earlier work
[4] = test system: guinea pig isolated, perfused heart
cardiac tissues = conditions: Heers et al. 1991; Damiano et al. 1991; cited from earlier work
[5] = agent 10 μmol/L intracellular via patch pipette
[6] = 0.75 μmol/L ouabain for 60 min, n=5
[7] = Example 1, ouabain-alone treated hearts
[8] = after ouabain treatment (discussion)
[9] = FIG. 1, after ouabain without ranolazine

SMILES: COc1ccc(S(=O)(=O)N(CCO)c2ccccc2CN(C)C/C=C/c2ccc(Cl)cc2)cc1 [KN-93]
- effect of ouabain (1 μmol/L) to increase late INa [1]: attenuated
- increase of late INa at the end of a 10-min exposure to ouabain [1, 5]: 76±35%
- late INa at the end of a 10-min exposure to ouabain [1, 5]: 33±6 pC/pF

SMILES: O=C(O)CN(CCOCCOCCN(CC(=O)O)CC(=O)O)CC(=O)O [EGTA]
- effect of ouabain (1 μmol/L) to increase late INa [1]: attenuated
- late INa at the end of a 10-min exposure to ouabain ([1]; EGTA 1 mmol/L in patch pipette, from 23±3, n=6): 31±8 pC/pF
- increase of late INa at the end of a 10-min exposure to ouabain ([1]; EGTA 1 mmol/L in patch pipette, n=6): 33±28%

SMILES: C[C@@H]1O[C@@H](O[C@H]2C[C@@H](O)[C@]3(CO)[C@H]4[C@H](O)C[C@]5(C)[C@@H](C6=CC(=O)OC6)CC[C@]5(O)[C@@H]4CC[C@]3(O)C2)[C@H](O)[C@H](O)[C@H]1O [ouabain]
- [Na+]i ([2]; 0.75 μmol/L ouabain for 40 min): 14.9 ± 0.9 mmol/L
- [Na+]i ([2]; 0.75 μmol/L ouabain for 76 min): 18.1 ± 0.9 mmol/L
- [Na+]i plateau level ([2]; 1.3 μmol/L ouabain alone, n=6): 22.9 ± 0.7 mmol/L
- increase of [Na+]i ([2]; 1.3 μmol/L ouabain, at 60 min): 3.3 -fold
- [Na+]i after washout of ouabain for 20 min ([2]; after 1.3 μmol/L ouabain, n=5): 10.3 ± 1.8 mmol/L
- activity of Na+, K+-ATPase inhibited (Na+, K+-ATPase): 77%
- [ATP] decline [3, 6]: 55±6%
- [PCr] decline [3, 6]: 56±7%
- [Pi] increase [3, 6]: 3.7±0.9 -fold
- [Pi] before washout ([3]; 0.75 μmol/L ouabain for 60 min, control 2.9±0.2): 9.1 ± 0.5 mmol/L
- pHi ([3]; 0.75 μmol/L ouabain for 60 min, control 7.15±0.01): 7.07±0.01
- decrease of |ΔG~ATP| ([3]; 0.75 μmol/L ouabain for 60 min, control 59.2 kJ/mol): 1.72 ± 0.287 kcal/mol
- ATP content reduced by [3, 7]: 64%
- intracellular inorganic phosphate (Pi) increase [3, 7]: 4.8 fold
- phosphocreatine (PCr) content reduced by [3, 7]: 59%
- pH ([3]; Example 1, ouabain-alone treated hearts, baseline 7.14): 7.07
- [Pi] after 20-min washout ([3]; after 0.75 μmol/L ouabain): 5.8 ± 0.4 mmol/L
- pHi after 20-min washout ([3]; after 0.75 μmol/L ouabain): 7.15
- loss of [ATP] and [PCr] [3, 8]: over 50%
- reduction of the value of |ΔG~ATP| [3, 8]: 1.7 kcal/mol
- integrated late INa ([1]; 3 to 5-min exposure to ouabain 1 μmol/L, from 23.5±4.9, n=8): 99.6±15.2 pC/pF
- late INa ([1]; ouabain alone 1 μmol/L, 5-10 min, from 21±2, n=6): 84±12 pC/pF
- increase of late INa ([1]; ouabain alone 1 μmol/L, 5-10 min, n=6): 318±74%
- reduction of [ATP] (cat papillary muscles): 42%
- reduction of [PCr] (cat papillary muscles): 66%
- hearts with episodes of cardiac standstill ([4]; 0.75 μmol/L ouabain for 60 min, alone): 11 out of 13
- LVSP ([4]; 0.75 μmol/L ouabain, from 96±2 mmHg, n=13): 148±6 mmHg
- RPP ([4]; 0.75 μmol/L ouabain, from 26,497±664 mmHg/min, n=13): 40,676±1159 mmHg/min
- increase of LVSP ([4]; 0.75 μmol/L ouabain, n=13): 55±5%
- increase of RPP ([4]; 0.75 μmol/L ouabain, n=13): 59±6%
- diastolic function (pressure) during 20 min wash out [4, 9]: 34 mmHg
- systolic pressure during 20 min wash out [4, 9]: 70 mmHg
- Left ventricular systolic pressure, maximum upon infusion with ouabain ([4]; FIG. 1 representative tracing, ouabain without ranolazine, baseline 101 mmHg): 140 mmHg
- EDP during toxic effect of ouabain ([4]; FIG. 1 representative tracing, ouabain without ranolazine, increase from 8 mmHg): 45 mmHg
- developed pressure ([4]; FIG. 7, ouabain-only treated hearts): significantly decreased
- LVDevP at the end of washout ([4]; ouabain alone, control 89.1±1.0 mmHg): 36.4±5.9 mmHg

SMILES: CN(c1nc2ccccc2s1)C1CCN(CCCCOc2ccc(F)cc2)CC1 [R56865]
- sodium and calcium overload during exposure to cardiac glycosides (cardiac tissues): reduce sodium and calcium overload
